Results reported in patent publication US8993001B2, “Methods and compositions for treating feline hyperthyroidism” (Hill's Pet Nutrition, Inc., priority 2006, dated 2015).

Experiments:
[1] = Serum creatinine in hyperthyroid cats, six-week study (Example 1); type: in vivo, cat
Experimental: (§1) Food B1 and food B2 were mixed in a 1:1 ratio, thus resulting in food B. A group of five cats diagnosed with hyperthyroidism was fed food B for six weeks. Another five cats diagnosed with hyperthyroidism were given 2.5 mg methimazole orally once a day for six weeks while they were fed food B. Eight cats diagnosed with hyperthyroidism were given 2.5 mg methimazole orally once a day for six weeks while they were fed a commercially available cat food. The thyroid hormone profiles and serum chemistries of all cats were measured at zero, two, four, and six weeks.

[2] = system: cats diagnosed with hyperthyroidism; test: Serum total T4 in hyperthyroid cats, six-week study (Example 1); type: in vivo, cat
Experimental: as §1, with “A” for “Food B1 and food B2 were mixed in a 1:1 ratio, thus resulting in food B. A”

[3] = cats diagnosed with hyperthyroidism, six weeks, methimazole 2.5 mg orally once a day where given

Change in Serum Creatinine Levels [1, 3]: +0.46 mg/dL
SMILES: Cn1cc[nH]c1=S [Methimazole, methimazole]
serum creatinine concentration relative to the normal creatinine concentration range ([1]; after six weeks, normal range 0.8-1.8 mg/dL): a bit higher than the 0.8-1.8 mg/dL normal creatinine concentration range | total T4 concentration relative to the normal total T4 concentration range ([2]; after six weeks): did not reach the normal total T4 concentration range | Change in Serum Total T4 Levels [2, 3]: -20.3 nmol/L
